The source of these data is publication PMC10620963, “Two-carbon tethered artemisinin–isatin hybrids: design, synthesis, anti-breast cancer potential, and in silico study” (Frontiers in Molecular Biosciences, 2023).

Data set [1] in a line: MTT cytotoxicity assay, MCF-10A. The class given is cell-based. Particulars: human, MCF-10A normal breast cells, 72 h exposure. How it is done:
(§1) The antiproliferative activity and cytotoxicity of ART–isatin hybrids 4a–k against MCF-7 (CL-0149, purchased from Procell), MDA-MB-231 (CL-0150A, purchased from Procell), and MDA-MB-231/ADR (AC337895, purchased from CASMART) breast cancer cell lines, as well as MCF-10A (CL-0525, purchased from Procell), were assessed by the 3-(4,5-dimethylthiazol-2-yl)-2,5-diphenyltetrazolium bromide (MTT) assay. ART, DHA, and Adriamycin (ADR) were used as positive controls. The selectivity index (SI: IC50(MCF-10A)/IC50(MCF-7)) and resistance index (RI: IC50(MDA-MB-231/ADR)/IC50(MDA-MB-231)) are presented in Table 3.
The cytotoxicity (CC50) of ART-isatin hybrids 4a-k and reference drugs artemisinin, dihydroartemisinin, and adriamycin were examined by the MTT assay in MCF-10A cells. The compounds were dissolved in DMSO with different concentrations. The MCF-10A cells were maintained in culture medium at 37 °C under 5% CO2 atmosphere. Cells were seeded in 96-well plates (1×10^4 cell per well) and allowed to recover for 24 h. After 72 h of exposure, cells were harvested, and cell viability was assessed by MTT assay.
(§2) The statistical analysis was performed using Excel © and IC50 values were estimated using GraphpadPrism5 software (Hearne Scientific Software). The experiments were performed in duplicate and the statistical significance was calculated using the student’s t-test. A p-value of less than 0.05 was used to estimate the significance of the observations. A Z-factor was calculated for each 96-well plate and assays having Z-factor above 0.05 were included in the statistical analysis.

Data set [2] concerns MDA-MB-231 breast cancer cell line. Nature of the data set: MTT antiproliferative assay, MDA-MB-231. Format: cell-based. Particulars: Homo sapiens, 24 h treatment, mean ± S.D., n = 3. The protocol:
as §1
(§3) MCF-7, MDA-MB-231 and MDA-MB-231/ADR breast cancer cells (2×10^3) were plated in each well of a 96-well plate and were allowed to adhere and spread for 24 h. Cells were treated with a range of different concentrations of ART-isatin hybrids 4a-k (1, 5, 10, 20, 50, 100 µM) and reference drugs artemisinin, dihydroartemisinin, and adriamycin (1, 5, 10, 20, 50, 100 µM) and were cultured for 24 h at 37 °C. 3-(4,5-dimethyl-2-thiazolyl)-2,5-diphenyltetrazolium bromide (MTT) solution (10 µL) was added to each well, and the cultures were incubated for an additional 4 h. A further 100 µL of […] was added and incubation continued overnight. The absorbance was read at 540 nm in EnSpire, multimode reader and IC50 concentration was calculated and indicated as means SD of three in-dependent experiments. The percentage relative cell viability was determined according to the following formula: Percentage cell viability = A at 570 nm of treated samples/A at 570 nm of untreated samples × 100.
as §2
On the technique in general: Tetrazolium assays rely on reduction of a dye to a coloured formazan, in cell work by metabolically active cells.

For data set [3], the system named is MCF-7 breast cancer cell line. Nature of the data set: MTT antiproliferative assay, MCF-7. The class given is cell-based, human. Particulars: for IC50: Homo sapiens, MCF7, MTT, 24 h treatment, mean ± S.D., n = 3. How it is done:
as §1, §3, §2

Data set [4] relates to MDA-MB-231/ADR (Adriamycin-resistant MDA-MB-231 cell line). Nature of the data set: MTT antiproliferative assay, MDA-MB-231/ADR. Particulars: Homo sapiens, 24 h treatment, mean ± S.D., n = 3. Format: cell-based. How it is done:
as §1, §3, §2

Data set [5] has as its system MCF-7, MDA-MB-231, and MDA-MB-231/ADR breast cancer cell lines. Nature of the data set: MTT antiproliferative assay, span over the three breast cancer cell lines. Format: cell-based. Particulars: Homo sapiens; span over MCF-7, MDA-MB-231, MDA-MB-231/ADR; read-out: IC50 range against the three tested breast cancer cell lines. How it is done:
as §1
MCF-7, MDA-MB-231 and MDA-MB-231/ADR breast cancer cells (2×10^3) were plated in each well of a 96-well plate and were allowed to adhere and spread for 24 h. […] The absorbance was read at 540 nm in EnSpire, multimode reader and IC50 concentration was calculated and indicated as means SD of three in-dependent experiments. The percentage relative cell viability was determined according to the following formula: Percentage cell viability = A at 570 nm of treated samples/A at 570 nm of untreated samples × 100.
The statistical analysis was performed using Excel © and IC50 values were estimated using GraphpadPrism5 software (Hearne Scientific Software). The experiments were performed in duplicate and the statistical significance was calculated using the student’s t-test. […]

In general, IC50 refers to the midpoint of a concentration-inhibition curve. `COc1cccc2c1C(=O)c1c(O)c3c(c(O)c1C2=O)C[C@@](O)(C(=O)CO)C[C@@H]3O[C@H]1C[C@H](N)[C@H](O)[C@H](C)O1` [ADR, Adriamycin, reference compound] had an IC50 at 72 h in data set [1] of 68.8 µM. For the same compound, the IC50 in data set [2] was 4.46 ± 0.1 µM; in data set [3] it was 18.9 ± 1.2 µM; in data set [4], over 100 µM. In data set [3], the “SI, selectivity index, IC50(MCF-10A)/IC50(MCF-7)” value (“SI, selectivity index” below) is 3.6.
`C[C@@H]1CC[C@H]2[C@@H](C)C(=O)O[C@@H]3O[C@@]4(C)CC[C@@H]1[C@]32OO4` [ART, artemisinin]: in data set [1], the half-maximal inhibitory concentration (IC50) at 72 h was over 100 µM. The figures for the IC50 in data set [2], in data set [3] and in data set [4] were 72.4 ± 5.3 µM, 87.6 ± 6.6 µM and over 100 µM, respectively. For the same compound, the “SI, selectivity index” value in data set [3] was over 1.1.
Turning to `C[C@H]1[C@@H](O)O[C@@H]2O[C@@]3(C)CC[C@H]4[C@H](C)CC[C@@H]1[C@@]24OO3` [DHA, dihydroartemisinin, reference compound], the 50% inhibitory concentration (IC50) in data set [5] was 69.6 to 89.8 µM; in data set [2], 69.6 ± 4.7 µM; in data set [3], 73.2 ± 5.9 µM; in data set [4], 82.8 ± 6.8 µM. The IC50 at 72 h in data set [1] is over 100 µM. In data set [3], the “SI, selectivity index” value is over 1.3.
For the compound `C[C@@H]1CC[C@H]2[C@@H](C)C(OCCN3C(=O)C(=O)c4ccccc43)O[C@@H]3O[C@@]4(C)CC[C@@H]1[C@]32OO4` (stereo partly drawn) [Hybrid 4a, 1-(2-(((3R,5aS,6R,8aS,9R,12R,12aR)-3,6,9-trimethyldecahydro-12H-3,12-epoxy[1,2]dioxepino[4,3-i]isochromen-10-yl)oxy)ethyl)indoline-2,3-dione], the IC50 in data set [5] is 2.49 to 12.6 µM; in data set [2] it was 3.83 ± 0.1 µM; in data set [3], 12.6 ± 2.1 µM; in data set [4], 2.49 ± 0.1 µM. Besides, in data set [1], the IC50 at 72 h was over 100 µM. Besides, the “SI, selectivity index” value in data set [3] is over 7.9.
As for `C[C@@H]1CC[C@H]2[C@@H](C)C(OCCN3C(=O)C(=O)c4cc(F)ccc43)O[C@@H]3O[C@@]4(C)CC[C@@H]1[C@]32OO4` (stereo partly drawn) [Hybrid 4b, 5-fluoro-1-(2-(((3R,5aS,6R,8aS,9R,12R,12aR)-3,6,9-trimethyldecahydro-12H-3,12-epoxy[1,2]dioxepino[4,3-i]isochromen-10-yl)oxy)ethyl)indoline-2,3-dione], the half-inhibitory concentration (IC50) at 72 h in data set [1] was over 100 µM. The IC50 in data set [2] was 18.6 ± 1.5 µM; in data set [3], 26.7 ± 2.4 µM; in data set [4] it was 21.4 ± 3.1 µM. For the same compound, the “SI, selectivity index” value in data set [3] is given as over 3.7.
On to `COc1ccc2c(c1)C(=O)C(=O)N2CCOC1O[C@@H]2O[C@@]3(C)CC[C@H]4[C@H](C)CC[C@@H]([C@H]1C)[C@@]24OO3` (stereo partly drawn) [Hybrid 4c, 5-methoxy-1-(2-(((3R,5aS,6R,8aS,9R,12R,12aR)-3,6,9-trimethyldecahydro-12H-3,12-epoxy[1,2]dioxepino[4,3-i]isochromen-10-yl)oxy)ethyl)indoline-2,3-dione], for which the IC50 at 72 h in data set [1] is over 100 µM. The IC50 was 27 ± 2.2 µM in data set [2], 33.8 ± 3.2 µM in data set [3] and 25.1 ± 1.9 µM in data set [4]. Besides, the “SI, selectivity index” value in data set [3] is on record as over 2.9.
For `CON=C1C(=O)N(CCOC2O[C@@H]3O[C@@]4(C)CC[C@H]5[C@H](C)CC[C@@H]([C@H]2C)[C@@]35OO4)c2ccccc21` (stereo partly drawn) [Hybrid 4d, 3-(methoxyimino)-1-(2-(((3R,5aS,6R,8aS,9R,12R,12aR)-3,6,9-trimethyldecahydro-12H-3,12-epoxy[1,2]dioxepino[4,3-i]isochromen-10-yl)oxy)ethyl)indolin-2-one], in that order: over 100 µM, 16.2 ± 1.8 µM, 28.5 ± 2.3 µM, 19.7 ± 1.2 µM and over 3.5.
In turn, `CO/N=C1/C(=O)N(CCOC2O[C@@H]3O[C@@]4(C)CC[C@H]5[C@H](C)CC[C@@H]([C@H]2C)[C@@]35OO4)c2ccc(F)cc21` (stereo partly drawn) [Hybrid 4e, (E)-5-fluoro-3-(methoxyimino)-1-(2-(((3R,5aS,6R,8aS,9R,12R,12aR)-3,6,9-trimethyldecahydro-12H-3,12-epoxy[1,2]dioxepino[4,3-i]isochromen-10-yl)oxy)ethyl)indolin-2-one] displayed a concentration for half-maximal inhibition (IC50) at 72 h in data set [1] of over 100 µM. Moreover, the IC50 came out at 49.6 ± 3.8 µM in data set [2], 73.3 ± 5.6 µM in data set [3] and 64.7 ± 4.9 µM in data set [4]. Moreover, the “SI, selectivity index” value in data set [3] is reported as over 1.3.
With `CON=C1C(=O)N(CCOC2O[C@@H]3O[C@@]4(C)CC[C@H]5[C@H](C)CC[C@@H]([C@H]2C)[C@@]35OO4)c2ccc(OC)cc21` (stereo partly drawn) [Hybrid 4f, 5-methoxy-3-(methoxyimino)-1-(2-(((3R,5aS,6R,8aS,9R,12R,12aR)-3,6,9-trimethyldecahydro-12H-3,12-epoxy[1,2]dioxepino[4,3-i]isochromen-10-yl)oxy)ethyl)indolin-2-one], the IC50 at 72 h in data set [1] is over 100 µM. Further, the IC50 amounted to 20.4 ± 1.7 µM in data set [2], 37.9 ± 3.3 µM in data set [3] and 33.8 ± 3 µM in data set [4]. Moreover, the “SI, selectivity index” value in data set [3] is reported as over 2.6.
`CCON=C1C(=O)N(CCOC2O[C@@H]3O[C@@]4(C)CC[C@H]5[C@H](C)CC[C@@H]([C@H]2C)[C@@]35OO4)c2ccccc21` (stereo partly drawn) [Hybrid 4g, 3-(ethoxyimino)-1-(2-(((3R,5aS,6R,8aS,9R,12R,12aR)-3,6,9-trimethyldecahydro-12H-3,12-epoxy[1,2]dioxepino[4,3-i]isochromen-10-yl)oxy)ethyl)indolin-2-one] had an IC50 at 72 h in data set [1] of over 100 µM. The IC50 in data set [2] is 37.6 ± 2.4 µM; in data set [3] it was 48.2 ± 3.7 µM; in data set [4] it was 28.4 ± 2.1 µM. Also, the “SI, selectivity index” value in data set [3] is reported as over 2.0.
For `CCON=C1C(=O)N(CCOC2O[C@@H]3O[C@@]4(C)CC[C@H]5[C@H](C)CC[C@@H]([C@H]2C)[C@@]35OO4)c2ccc(F)cc21` (stereo partly drawn) [Hybrid 4h, 3-(ethoxyimino)-5-fluoro-1-(2-(((3R,5aS,6R,8aS,9R,12R,12aR)-3,6,9-trimethyldecahydro-12H-3,12-epoxy[1,2]dioxepino[4,3-i]isochromen-10-yl)oxy)ethyl)indolin-2-one], in that order: over 100 µM, 46.5 ± 3.9 µM, 68.3 ± 5.2 µM, 59.9 ± 4.4 µM and over 1.4.
`CCON=C1C(=O)N(CCOC2O[C@@H]3O[C@@]4(C)CC[C@H]5[C@H](C)CC[C@@H]([C@H]2C)[C@@]35OO4)c2ccc(OC)cc21` (stereo partly drawn) [Hybrid 4i, 3-(ethoxyimino)-5-methoxy-1-(2-(((3R,5aS,6R,8aS,9R,12R,12aR)-3,6,9-trimethyldecahydro-12H-3,12-epoxy[1,2]dioxepino[4,3-i]isochromen-10-yl)oxy)ethyl)indolin-2-one] came in with an IC50 at 72 h in data set [1] of over 100 µM. Also, the IC50 in data set [2] amounted to 50.1 ± 4.2 µM; in data set [3], 70.8 ± 5.9 µM; in data set [4] it was 52.2 ± 3.6 µM. The “SI, selectivity index” value in data set [3] is reported as over 1.4.
With `C[C@@H]1CC[C@H]2[C@@H](C)C(OCCN3C(=O)C(=NOCc4ccccc4)c4cc(F)ccc43)O[C@@H]3O[C@@]4(C)CC[C@@H]1[C@]32OO4` (stereo partly drawn) [Hybrid 4j, 3-((benzyloxy)imino)-5-fluoro-1-(2-(((3R,5aS,6R,8aS,9R,12R,12aR)-3,6,9-trimethyldecahydro-12H-3,12-epoxy[1,2]dioxepino[4,3-i]isochromen-10-yl)oxy)ethyl)indolin-2-one], the IC50 at 72 h in data set [1] was over 100 µM. For the same compound, the IC50 in data set [2], in data set [3] and in data set [4] was over 100 µM in each case.
`COc1ccc2c(c1)/C(=N\OCc1ccccc1)C(=O)N2CCOC1O[C@@H]2O[C@@]3(C)CC[C@H]4[C@H](C)CC[C@@H]([C@H]1C)[C@@]24OO3` (stereo partly drawn) [Hybrid 4k, (E)-3-((benzyloxy)imino)-5-methoxy-1-(2-(((3R,5aS,6R,8aS,9R,12R,12aR)-3,6,9-trimethyldecahydro-12H-3,12-epoxy[1,2]dioxepino[4,3-i]isochromen-10-yl)oxy)ethyl)indolin-2-one] gave an IC50 at 72 h in data set [1] of over 100 µM. Further, the IC50 in data set [2], in data set [3] and in data set [4] was over 100 µM each time.
